Consider 20 compounds from ChEMBL document CHEMBL3393028, “Discovery and characterization of MAPK-activated protein kinase-2 prevention of activation inhibitors” (J Med Chem, 2015).

The target in series [1] is T1, Mitogen-activated protein kinase 14 (Homo sapiens, UniProt Q16539). The series is described as follows: Inhibition of human recombinant 5'-c-myc, His6-tagged p38-alpha using MK2 (46 to 400) as substrate assessed as inhibition of phosphorylation after 60 mins by ELISA in presence of ATP.
The target of series [2] is T1, Mitogen-activated protein kinase 14. In words: Inhibition of human recombinant 5'-c-myc, His6-tagged p38-alpha using MSK1 as substrate assessed as inhibition of phosphorylation after 60 mins by ELISA in presence of ATP.
The target is the same in series [3]. In words: Inhibition of p38-alpha (unknown origin) by p38alpha-MBP IoC assay.
Series [4] shares this target. The series is described as follows: Inhibition of p38-alpha in human PBMC assessed as inhibition of LPS-induced TNF-alpha production incubated for 30 mins prior to LPS challenge measured after 7 hrs by ELISA.
The target in another series is Cytochrome P450 3A4 (Homo sapiens, UniProt P08684). In words: Inhibition of CYP3A4 (unknown origin). Type of series: ADME.
Series [5] addresses T1, Mitogen-activated protein kinase 14. In words: Inhibition of p38-alpha in human TC28 cells assessed as inhibition of IL-1-induced PGE2 production incubated for 20 mins prior to IL-1 challenge measured after 24 hrs by ELISA. Type of series: cell-based.
Series [6] can be described thus: Thermodynamic solubility of the compound at pH 7.4. As to conditions: buffer, read-out: Therm_solubility. Type of series: physicochemical.
A short description of series [7]: Fraction unbound in rat plasma by equilibrium dialysis method. It is filed as ADME, cell-free.
Series [8] in a line: Fraction unbound in human plasma by equilibrium dialysis method. Type of series: ADME, cell-free.
Series [9] is described as follows: Intrinsic clearance in human liver microsomes. It is filed as ADME. As to conditions: read-out: CLH.
Series [10] can be described thus: Intrinsic clearance in rat hepatocytes assessed per 10^6 cells. It is filed as ADME, cell-based, Hepatocyte. The following applies: read-out: CLH.
Series [11] concerns the target MAP kinase-activated protein kinase 2 (Homo sapiens) (UniProt P49137). The series is described as follows: Binding affinity to phosphorylated full length 2H,15N-labeled MK2 (unknown origin) expressed in Escherichia coli by 2D-NMR analysis.
The target of series [12] is Insulin-like growth factor 1 receptor (Homo sapiens) (UniProt P08069). As to conditions: 10 uM.
Description: Inhibition of IGF1R (unknown origin) at 10 uM
Series [13] has as its target T1, Mitogen-activated protein kinase 14. In words: Competitive inhibition of human recombinant 5'-c-myc, His6-tagged p38-alpha using MK2 (46-400) as substrate.
For series [14] the target is unchanged. The series is described as follows: Displacement of 1-[7-[3-[4-(aminomethyl)-1-piperidyl]propoxy]-6-methoxy-quinazolin-4-yl]-3-(2-chloro-6-methylphenyl)urea from GST-tagged phosphorylated p38-alpha (unknown origin) by surface plasmon resonance based ISA method.
Series [15] can be described thus: Lipophilicity, log D of the compound at pH 7.4. It is filed as physicochemical. As to conditions: buffer.

In brackets after ≈: the same amount, converted by molar mass. Activity calls are given as the source filed them. No cut-off for these calls is given here.

Chain of Cytochrome P450 3A4 (P08684 whole entry): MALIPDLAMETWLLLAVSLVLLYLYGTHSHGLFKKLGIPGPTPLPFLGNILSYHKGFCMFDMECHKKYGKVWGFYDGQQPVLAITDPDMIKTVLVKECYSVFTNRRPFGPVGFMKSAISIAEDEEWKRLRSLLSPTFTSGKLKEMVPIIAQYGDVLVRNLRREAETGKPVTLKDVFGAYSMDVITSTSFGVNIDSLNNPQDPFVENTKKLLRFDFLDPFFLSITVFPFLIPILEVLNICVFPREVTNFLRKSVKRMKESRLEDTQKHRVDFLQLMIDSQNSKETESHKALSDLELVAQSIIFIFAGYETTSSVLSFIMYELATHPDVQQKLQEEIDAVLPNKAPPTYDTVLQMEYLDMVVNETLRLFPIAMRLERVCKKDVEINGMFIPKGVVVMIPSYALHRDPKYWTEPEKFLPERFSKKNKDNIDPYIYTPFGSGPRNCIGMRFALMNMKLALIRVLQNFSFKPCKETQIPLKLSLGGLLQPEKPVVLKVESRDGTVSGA
T1 sequence (Q16539 whole entry): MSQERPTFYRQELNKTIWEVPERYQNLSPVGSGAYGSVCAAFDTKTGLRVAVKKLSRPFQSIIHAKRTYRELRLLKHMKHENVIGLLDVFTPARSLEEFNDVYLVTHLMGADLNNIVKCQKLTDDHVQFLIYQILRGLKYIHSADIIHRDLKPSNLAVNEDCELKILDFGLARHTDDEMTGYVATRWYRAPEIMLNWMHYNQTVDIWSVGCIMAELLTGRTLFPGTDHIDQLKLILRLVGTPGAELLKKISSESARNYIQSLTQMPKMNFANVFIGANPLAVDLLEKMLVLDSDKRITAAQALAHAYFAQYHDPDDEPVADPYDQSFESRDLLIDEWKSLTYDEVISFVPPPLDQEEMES
Chain of Insulin-like growth factor 1 receptor (Homo sapiens) (P08069 31-736 limits assumed): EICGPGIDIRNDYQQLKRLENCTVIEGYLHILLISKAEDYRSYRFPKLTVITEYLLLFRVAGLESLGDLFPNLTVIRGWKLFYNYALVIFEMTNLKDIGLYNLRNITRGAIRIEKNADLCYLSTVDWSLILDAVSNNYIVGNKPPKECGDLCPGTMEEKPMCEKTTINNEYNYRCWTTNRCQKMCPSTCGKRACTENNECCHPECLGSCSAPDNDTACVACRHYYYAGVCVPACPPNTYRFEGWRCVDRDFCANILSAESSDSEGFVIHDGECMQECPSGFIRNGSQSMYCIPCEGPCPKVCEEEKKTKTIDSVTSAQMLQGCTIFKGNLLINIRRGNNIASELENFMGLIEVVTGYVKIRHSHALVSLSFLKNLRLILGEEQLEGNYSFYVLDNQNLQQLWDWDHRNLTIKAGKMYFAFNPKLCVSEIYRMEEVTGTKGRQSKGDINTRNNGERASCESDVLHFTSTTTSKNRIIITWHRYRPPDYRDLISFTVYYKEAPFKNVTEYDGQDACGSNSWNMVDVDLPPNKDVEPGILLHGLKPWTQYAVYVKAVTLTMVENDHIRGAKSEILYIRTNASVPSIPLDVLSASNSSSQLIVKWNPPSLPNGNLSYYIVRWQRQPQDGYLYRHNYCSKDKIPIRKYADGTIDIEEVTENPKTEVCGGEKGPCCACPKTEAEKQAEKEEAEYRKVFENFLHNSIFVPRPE
Chain of Insulin-like growth factor 1 receptor (Homo sapiens) (P08069 741-1367 limits assumed): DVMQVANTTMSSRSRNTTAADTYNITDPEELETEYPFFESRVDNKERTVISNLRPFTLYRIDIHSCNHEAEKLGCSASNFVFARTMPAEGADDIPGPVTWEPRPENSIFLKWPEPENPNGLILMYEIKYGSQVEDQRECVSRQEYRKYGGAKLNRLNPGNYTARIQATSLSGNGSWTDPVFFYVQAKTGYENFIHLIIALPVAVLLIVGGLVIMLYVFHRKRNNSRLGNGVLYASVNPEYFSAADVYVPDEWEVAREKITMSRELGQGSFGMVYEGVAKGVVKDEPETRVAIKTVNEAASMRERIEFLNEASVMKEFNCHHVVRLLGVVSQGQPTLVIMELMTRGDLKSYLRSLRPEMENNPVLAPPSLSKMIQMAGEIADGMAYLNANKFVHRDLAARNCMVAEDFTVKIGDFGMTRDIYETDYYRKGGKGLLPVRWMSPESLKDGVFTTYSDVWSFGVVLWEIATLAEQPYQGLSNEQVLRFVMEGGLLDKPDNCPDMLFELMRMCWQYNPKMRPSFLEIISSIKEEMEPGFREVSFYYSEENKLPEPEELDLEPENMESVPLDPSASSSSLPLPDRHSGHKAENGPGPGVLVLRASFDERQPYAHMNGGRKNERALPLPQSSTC
Chain of MAP kinase-activated protein kinase 2 (Homo sapiens) (P49137 whole entry, looked up): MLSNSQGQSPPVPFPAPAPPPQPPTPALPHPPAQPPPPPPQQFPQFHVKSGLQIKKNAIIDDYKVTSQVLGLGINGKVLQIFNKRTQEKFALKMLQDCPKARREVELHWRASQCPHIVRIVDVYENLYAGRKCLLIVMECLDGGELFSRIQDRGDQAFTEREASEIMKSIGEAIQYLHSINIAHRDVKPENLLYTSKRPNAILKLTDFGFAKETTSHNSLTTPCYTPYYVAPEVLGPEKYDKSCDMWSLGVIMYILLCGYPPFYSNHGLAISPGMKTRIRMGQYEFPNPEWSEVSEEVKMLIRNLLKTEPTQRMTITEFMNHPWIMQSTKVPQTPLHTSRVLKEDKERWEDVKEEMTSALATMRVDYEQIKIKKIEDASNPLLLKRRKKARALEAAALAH

On to `CCCc1c(C(=O)Nc2cc(C(=O)OC)ccc2C)cnn1-c1ccccc1`, for which the IC50 in series [1] is 490 nM; in series [2], 500 nM; in series [3], above 10000 nM.
For `CCCc1c(C(=O)Nc2cc(S(C)(=O)=O)ccc2C)cnn1-c1ccccc1` the same measures were 190 nM, 23000 nM and above 10000 nM.
On to `CCCc1c(C(=O)Nc2cc(C(=O)O)ccc2C)cnn1-c1ccccc1`, for which the IC50 in [1] is 86 nM; in [2], 4200 nM; in series [3] it was above 10000 nM; in series [4], 21000 nM.
`CCCc1c(C(=O)Nc2cc(S(=O)(=O)N(C)C)ccc2C)cnn1-c1ccc(Cl)cc1`: the figures for the concentration for half-maximal inhibition (IC50) in series [1], in series [2] and in series [3] were 390 nM, 20000 nM and above 10000 nM, respectively.
For `Cc1ccccc1Oc1ccc(C(=O)NCc2ccncc2)cc1` the same measures were 2000 nM, 5400 nM and above 10000 nM.
For `CCCc1c(C(=O)Nc2cc(S(=O)(=O)N(C)C)ccc2C)cnn1CC(C)C` the same measures were 76 nM, 5400 nM and above 10000 nM.
As to `N#Cc1ccccc1Oc1ccc(C(=O)NCc2ccncn2)cc1`, the 50% inhibitory concentration (IC50) is 2800 nM in series [1]; above 100000 nM in series [2]; above 10000 nM in series [3]; above 10000 nM against Cytochrome P450 3A4; 7100 nM in series [5]. Besides, the solubility thermodynamic in [6] was determined as 360 µM (≈ 119 µg/mL). For the same compound, the results for the fraction unbound in [7] and in series [8] were 0.2 and 0.27, respectively. Also, the microsomal CLint in series [9] is below 2 µL/min/mg. The hepatocyte CLint in series [10] worked out at 23 µL/min/1e6 cells.
Take `CCCc1c(C(=O)Nc2cc(O)ccc2C)cnn1-c1ccccc1`: the concentration for half-maximal inhibition (IC50) in series [1] was below 46 nM; in series [2] it was below 46 nM; in [3] it was above 10000 nM.
For the compound `CCCc1c(C(=O)Nc2cc(F)ccc2C)cnn1-c1ccccc1`, the IC50 in series [1] is 110 nM; in series [2], 2500 nM; in [3], above 10000 nM.
For `CCCc1c(C(=O)Nc2cc(S(=O)(=O)N(C)C)ccc2C)cnn1-c1ccccc1`, the result in series [11] was inactive. In series [6], the solubility thermodynamic turned out to be 0.55 µM (≈ 0.235 µg/mL). Besides, the results for the fraction unbound in [7] and in [8] were 0.031 and 0.023, respectively. Also, the microsomal CLint in series [9] is 62 µL/min/mg. Besides, the hepatocyte CLint in [10] was determined as 42 µL/min/1e6 cells. This compound also gave an inhibition in [12] of 30%.
For `O=C(NCc1ccncc1)c1ccc(Oc2ccccc2Cl)cc1`, the 50% inhibitory concentration (IC50) in series [1] is 1700 nM; in series [2], 1700 nM; in series [3] it was above 10000 nM.
For the compound `N#Cc1ccccc1Oc1ccc(C(=O)NCc2ccccc2)cc1`, the IC50 in series [1] is 450 nM; in series [2], above 100000 nM; in series [3], above 10000 nM; against Cytochrome P450 3A4, above 10000 nM; in series [5], 1400 nM.
Take `CCCc1c(C(=O)Nc2cc(C#N)ccc2C)cnn1-c1ccccc1`: the IC50 in series [1] is 15 nM; in series [2], 890 nM; in series [3], above 10000 nM; in [5], 210 nM.
As to `N#Cc1ccccc1Oc1ccc(C(=O)NCc2ccncc2)cc1`, the result in series [11] was inactive. Besides, the IC50 in [1] was 600 nM; in series [2], 21000 nM; in series [3], above 10000 nM; against Cytochrome P450 3A4, 1000 nM; in series [4], 5400 nM; in series [5], 25000 nM. Moreover, the solubility thermodynamic in series [6] stood at 120 µM (≈ 39.5 µg/mL). The fraction unbound in series [7] stood at 0.14; in series [8], 0.085. In addition, in [9], the microsomal CLint was below 2 µL/min/mg. Further, in series [10], the hepatocyte CLint turned out to be 28 µL/min/1e6 cells. Further, the Ki in [13] was found to be 290 nM. The compound also had a Kd in series [14] above 20000 nM. Besides, in series [12], the inhibition worked out at 30%.
In the case of `CCCc1c(C(=O)Nc2cc(OCc3ccccc3)ccc2C)cnn1-c1ccccc1`, the IC50 was above 100000 nM in series [1], above 100000 nM in series [2] and above 10000 nM in series [3].
In the case of `CCCc1c(C(=O)Nc2cc(S(=O)(=O)N(C)C)ccc2C)cnn1-c1cccnc1`, the log distribution coefficient (logD) in [15] stood at 2.3. In addition, the IC50 in [1] is 270 nM; in series [2], above 30000 nM; in [3], above 10000 nM. The solubility thermodynamic in series [6] turned out to be 21 µM (≈ 8.98 µg/mL). The fraction unbound in [7] was 0.24; in series [8] it was 0.26. In addition, in series [9], the microsomal CLint came to 143 µL/min/mg. The hepatocyte CLint in series [10] stood at 10 µL/min/1e6 cells.
For the compound `O=C(NCc1ccncc1)c1ccc(Oc2ccc(Cl)cc2)cc1`, the IC50 in series [1] was 2400 nM; in [2], 10000 nM; in [3], above 10000 nM; at Cytochrome P450 3A4, 1000 nM.
Regarding `CCCc1c(C(=O)Nc2cc(S(=O)(=O)N(C)C)ccc2C)cnn1Cc1ccccc1`, the IC50 was 53 nM in series [1], 6300 nM in series [2] and above 10000 nM in series [3].
For `O=C(NCc1ccncc1)c1ccc(Oc2ccc(F)cc2)cc1`, the concentration for half-maximal inhibition (IC50) in series [1] is 2100 nM; in [2], 2300 nM; in [3] it was above 10000 nM; against Cytochrome P450 3A4, 1000 nM.
`N#Cc1ccccc1Oc1ccc(C(=O)NCc2cccnc2)cc1`: the concentration for half-maximal inhibition (IC50) in series [1] was 560 nM; in series [2], 15000 nM; in [3] it was above 10000 nM; against Cytochrome P450 3A4 it was above 10000 nM; in series [5], 4700 nM.
